Literature values as cited in patent US9409783B2, “Method for manufacturing mesoporous materials, materials so produced and use of mesoporous materials” (Nanologica AB, priority 2008, dated 2016).

Settings: L-glutamate group of folic acid; deprotonated and negatively charged above this pH

Compound: Nc1nc2ncc(CNc3ccc(C(=O)N[C@@H](CCC(=O)O)C(=O)O)cc3)nc2c(=O)[nH]1 [folic acid]
- pKa value: 8.3
